Converted amounts (≈) assume the structure as drawn. Read-outs that look alike come from different tables or passages of the source. Marks after values point to notes of the source that are not given here.
Tests used:
[1] = Aqueous solubility by weighing dried aliquots; type: physicochemical; details: ultrapure deionised water, room temperature, pH =7
Experimental: Substances were dissolved in ultrapure deionised water at room temperature up to concentrations of 50 g/L. Solutions were centrifuged and their aliquots were transferred into weighed glass vials (d = 0.01 mg). The samples were dried under reduced pressure and the vials were weighed again. The solubility was calculated from mass difference divided by sample volume.

[2] = test system: SupT1 cells; test: Cytotoxicity from cell numbers in non-infected SupT1 cultures; type: cell-based; details: concentration at which toxicity is observed in 10-fold titration series
Experimental: (§1) CD4^+ T cells were harvested from normal donors and cultured in Roswell Park Memorial Institute medium (RPMI) supplemented with 2 mM L-glutamine (Life Technologies, Merelbeke, Belgium), 10% (v/v) heat-inactivated foetal calf serum (Hyclone, Thermo Fisher Scientific, Waltham, MA), 100 U/mL penicillin and 100 µg/mL streptomycin (Life Technologies), 20 ng/mL interleukin-2 (IL-2; specific activity 10 U/ng, Peprotech, London, UK), and with 1 µg/mL phytohemagglutinin (PHA) mitogen (Thermo Fisher Scientific), 72 h prior to infection, as described earlier. SupT1 cells were maintained at maximum 500,000 cells/mL, in Iscove’s Modified Dulbecco’s Medium (IMDM) supplemented with 2 mM L-glutamine (Life Technologies) and 10% (v/v) heat-inactivated foetal calf serum (Hyclone, Thermo Fisher Scientific, Waltham, MA), as described earlier.
(§2) Lyophilised compound was dissolved in dimethyl sulfoxide to a concentration of 5 mM, and further diluted in cell culture medium (SupT1: IMDM and CD4^+ T cells: RPMI). Cells were incubated 2 h prior infection in appropriate medium as described above, now also supplemented with diluted compound. Subsequently, cells (SupT1: 50,000 per 96 well, CD4^+ T cells: 250,000 per 96 well) were infected with HIV (HIV NL4–3-GFP-I, an infectious virus expressing green fluorescent protein (GFP) from gfp-IRES-nef mRNA expressed from the nef locus, as described earlier. Medium was as described above, now also supplemented with diluted compound (For CD4^+ T cells, PHA was left out). Medium was refreshed after 24 h, keeping compound and supplement concentrations constant. After 72 h, cells were harvested, measured by flow cytometry for GFP expression and counted, using a MACSQuant flow cytometer (Miltenyi Biotec, Bergisch Gladbach, Germany). Infection rate measured by GFP expression was between 6 and 20%. Cell numbers were used to measure cytotoxicity (cell numbers in non-infected cultures supplemented with compound were compared to cell numbers obtained in parallel cultures without compound added: a reduction with more than 10% was considered to indicate cytotoxicity).
First, toxicity of the compounds was determined in SupT1 cells. Since even minor toxicity affects the support of viral replication by the cell, compounds should be active well below threshold toxic concentration (i.e. concentration at which toxicity is observed in 10-fold titration series).

[3] = biological target: T1, HIV-1 RT (Human immunodeficiency virus type 1 group M subtype B, UniProt P04585); test: HIV RT inhibitory activity, colorimetric Reverse Transcriptase Assay kit (Roche); type: biochemical
T1 construct: Because HIV-1 reverse transcriptase (RT) has a low fidelity; purchased Roche, Basel, Switzerland
Experimental: HIV RT inhibitory activity of the new compounds was measured using the colorimetric Reverse Transcriptase Assay kit (Roche, Basel, Switzerland). […] Averaged results from at least two measurements were used to obtain an inhibition curve. IC50 values were obtained by interpolating the curve using non-linear regression.

[4] = test system: HIV NL4-3-GFP-I in SupT1 cells; test: Infection assay in SupT1 cells, GFP flow cytometry; type: cell-based, HIV-1; details: for Antiviral activity: SupT1 cells, at 10-fold lower concentration than threshold toxic concentration
Experimental: as §1, §2

[5] = ref Janssen et al.[15]; cited from earlier work
[6] = thermodynamic from solid, read-out: Solubility
[7] = HIV-1 RT, 2 ng enzyme, at least two measurements, read-out: IC50

Structure (SMILES)	Solubility [1, 6]	Threshold toxicity [2]	IC50 [3, 7]	IC50 [3]	Antiviral activity [4]	Solubility [1]	IC50 ([4]; Human immunodeficiency virus 1, NL43, SUP-T1, read-out: IC50 (infection rate), reference run in parallel)	Solubility [5]
N#Cc1cc(Cl)cc(Oc2cc(OCC(=O)c3ccc(OCC(=O)O)cc3)ccc2Cl)c1 [Compound 7a]	13.1 mg/mL (≈ 27.7 mM)	5 µM	1.23 ± 0.05 µM	–	–	–	–	–
O=C([O-])COc1ccc(C(=O)COc2ccc(Cl)c(Oc3cc(Cl)cc(Cl)c3)c2)cc1.[K+] [Compound 7b]	4.3 mg/mL	50 µM	–	6.75 ± 0.5 µM	+	–	–	–
N#Cc1cc(Cl)cc(Oc2cc(Cl)cc(OCC(=O)c3ccc(OCC(=O)[O-])cc3)c2)c1.[K+] [Compound 7c]	–	50 µM	8.3 ± 1.3 µM	–	–	>50.0 mg/mL	–	–
N#Cc1cc(Cl)cc(Oc2cccc(OCC(=O)c3ccc(OCC(=O)[O-])cc3)c2)c1.[K+] [Compound 7d]	–	50 µM	9.78 ± 0.67 µM	–	–	>50.0 mg/mL	–	–
Cc1cc(OCC(=O)[O-])ccc1C(=O)COc1ccc(Cl)c(Oc2cc(Cl)cc(C#N)c2)c1.[K+] [Compound 7f]	–	>50 µM	4.71 ± 0.43 µM	–	+	8.9 mg/mL	–	–
Cc1cc(C(=O)COc2ccc(Cl)c(Oc3cc(Cl)cc(C#N)c3)c2)ccc1OCC(=O)[O-].[K+] [Compound 7g]	–	50 µM	0.65 ± 0.03 µM	–	+	3.8 mg/mL	–	–
N#Cc1cc(Cl)cc(Oc2ccc(Cl)cc2OCC(=O)c2ccc(OCC(=O)O)cc2)c1 [Compound 8a]	> 50 mg/mL	50 µM	23.4 ± 1.6 µM	–	–	–	–	–
Cc1cc(OCC(=O)[O-])ccc1C(=O)COc1cc(Cl)ccc1Oc1cc(Cl)cc(C#N)c1.[K+] [Compound 8d]	–	50 µM	4.7 ± 0.7 µM	–	–	14.4 mg/mL	–	–
Cc1cc(C(=O)COc2cc(Cl)ccc2Oc2cc(Cl)cc(C#N)c2)ccc1OCC(=O)[O-].[K+] [Compound 8e]	–	50 µM	3.07 ± 0.22 µM	–	+	39.9 mg/mL	–	–
N#Cc1cc(Cl)cc(Oc2cc(Cl)ccc2OCC(=O)c2ccc(Oc3ccc(OCC(=O)[O-])cc3)cc2)c1.[K+] [Compound 8f]	–	5 µM	1.27 ± 0.05 µM	–	–	>50.0 mg/mL	–	–
Cc1ccnc2c1NC(=O)c1cccnc1N2C1CC1 [NVP, nevirapine, reference compound]	–	50 µM	–	–	+	–	0.04 µM	–
Cc1cc(/C=C/C#N)cc(C)c1Nc1ccnc(Nc2ccc(C#N)cc2)n1 [RPV, rilpivirine, reference compound]	–	0.5 µM	0.32 ± 0.04 µM	–	+	–	–	0.00002 ^b g/L

Source: publication PMC6009982, “Diaryl ethers with carboxymethoxyphenacyl motif as potent HIV-1 reverse transcriptase inhibitors with improved solubility” (Journal of Enzyme Inhibition and Medicinal Chemistry, 2017)
